Marks after values point to notes of the source that are not given here. Where no end group is shown, it is not given here.
Assays:
Candida albicans = assay: Growth inhibition on agar with spotted peptide; format: cell-based; set-up: key: “+” designates full growth inhibition; “+/−” designates partial inhibition; “−” signifies no inhibition; details: C. albicans on agar, 10 μg peptide spotted
Experimental: (§1) The growth of the yeast Candida albicans, Torulopsis glabrata and meticillin-resistant Staphylococcus aureus (MRSA) was tested by growing them on agar on which 10 μg of each of the peptides according to the invention was spotted. […] “+” designates full growth inhibition, “+/−” designates partial inhibition and “−” signifies no inhibition.

Torulopsis glabrata = assay: Growth inhibition on agar with spotted peptide; format: cell-based; set-up: key: “+” designates full growth inhibition; “+/−” designates partial inhibition; “−” signifies no inhibition; details: T. glabrata on agar, 10 μg peptide spotted
Experimental: as §1

[1] = system: meticillin-resistant Staphylococcus aureus (MRSA); assay: Growth inhibition on agar with spotted peptide; format: cell-based; set-up: key: “+” designates full growth inhibition; “+/−” designates partial inhibition; “−” signifies no inhibition; details: 10 μg peptide spotted
Experimental: as §1

[2] = system: Streptococcus salivarius (SS 196); assay: Antibacterial activity against monocultures in vitro (viability counts); format: cell-based; details: 0.5 h, 100 μg/ml
Experimental: (§2) Monocultures of the bacteria Streptococcus mutans (R9), Strentococcus sanguis (SB 179), Streptococcus salivarius (SS 196), Actinomyces naeslundii (WVU 627), Fusobacterium nucleatum (ATCC 10953), Prevotella intermedia ([…]) and Veillonella parvula (ATCC 17745) were cultured to a late log phase in BHI (Difco), washed three times in 10 mM potassium phosphate buffer (PPB) and diluted to a suspension of 10^6 CFU/ml. […] The control treatment was performed in 10 mM without peptide.

[3] = system: Fusobacterium nucleatum (ATCC 10953); assay: as above; format: cell-based; details: 0.5 h, 100 μg/ml
Experimental: as §2

[4] = system: Streptococcus mutans (R9); assay: as above; format: cell-based; details: 0.5 h, 100 μg/ml
Experimental: as §2

[5] = system: Strentococcus sanguis (SB 179); assay: as above; format: cell-based; details: Streptococcus sanguis, 0.5 h, 100 μg/ml
Experimental: as §2

[6] = system: Veillonella parvula (ATCC 17745); assay: as above; format: cell-based; details: 0.5 h, 100 μg/ml
Experimental: as §2

[7] = system: Actinomyces naeslundii (WVU 627); assay: as above; format: cell-based; details: 0.5 h, 100 μg/ml
Experimental: as §2

Streptococcus mutans = assay: Inhibition of lactic acid production; format: cell-based; details: S. mutans; 1 hour in 10 mM PPB with glucose
Experimental: (§3) All peptides according to the invention were tested for their capacity to inhibit the lactic acid production of the bacteria Streptococcus sanguis, Streptococcus mutans, Streptococcus salivarius and Lactobacillus rhamnosus. The formation of lactic acid is a measure for the metabolic activity. For this purpose cultures of bacteria cells were incubated for 1 hour in 10 mM PPB with 0.5 glucose and different concentrations of the peptides. The formation of lactic acid was monitored by means of spectrophotometry.

Lactobacillus rhamnosus = assay: Inhibition of lactic acid production; format: cell-based; details: L. rhamnosus; 1 hour in 10 mM PPB with glucose
Experimental: as §3

Streptococcus salivarius = assay: Inhibition of lactic acid production; format: cell-based; details: S. salivarius; 1 hour in 10 mM PPB with glucose
Experimental: as §3

Streptococcus sanguis = assay: Inhibition of lactic acid production; format: cell-based; details: S. sanguis; 1 hour in 10 mM PPB with glucose
Experimental: as §3

Candida albicans 10231 = assay: microbe, parasite or virus in culture; details: 10231, pH 7
Experimental: (§4) 5*10^6 cells of Candida pseudotropicalis, Candida albicans 10231, Cryptococcus neoformans, Candida krusei, Candida parapsilosis, Candida glabrata and Candida albicans 32354 and an ergosterol-deficient mutant thereof were incubated for one and a half hours at 37° C. in the presence of a dilution series of a peptide according to the invention or amphotericin B in 1 mM potassium phosphate buffer, pH 7.0. The viability was determined by plating out. Used as positive control was synthetic PGLa (“Protein beginning with Glycine and ending with Leucin-amide”, with the amino acid sequence […]-amide).

Candida pseudotropicalis = assay: microbe, parasite or virus in culture; details: pH 7
Experimental: as §4

Cryptococcus neoformans = assay: microbe, parasite or virus in culture; details: pH 7
Experimental: as §4

Candida parapsilosis = assay: microbe, parasite or virus in culture; details: pH 7
Experimental: as §4

Candida glabrata = assay: microbe, parasite or virus in culture; details: pH 7
Experimental: as §4

Candida albicans 32354 = assay: microbe, parasite or virus in culture; details: 32354, pH 7
Experimental: as §4

Candida krusei = assay: microbe, parasite or virus in culture; details: pH 7
Experimental: as §4

[8] = system: bacteria from cultured plaque; assay: Antimicrobial activity on oral bacteria; format: cell-based; details: 0.5 h, 100 μg/ml
From the text: (§5) In order to determine whether the peptides according to the invention are also active against bacteria such as are encountered in the mouth, bacteria were collected from saliva and plaque. Saliva was shaken on a vortex mixer and centrifuged.

[9] = system: bacteria collected from plaque; assay: Antimicrobial activity on oral bacteria; format: cell-based; details: 0.5 h, 100 μg/ml
From the text: as §5

[10] = system: bacteria collected from saliva; assay: Antimicrobial activity on oral bacteria; format: cell-based; details: 0.5 h, 100 μg/ml
From the text: as §5

[11] = system: bacteria from disrupted plaque; assay: Antimicrobial activity on oral bacteria; format: cell-based; details: 0.5 h, 100 μg/ml
From the text: as §5

[12] = system: Prevotella intermedia (T588); assay: Antibacterial activity against monocultures in vitro (viability counts); format: cell-based; details: 0.5 h, 100 μg/ml
Experimental: as §2

[13] = system: Yersinia enterocolitica (PYv+); assay: Killing of Yersinia by peptide 10 (CFU over time); format: cell-based; details: 50 μg/ml, CFU at 0, 1, 2 and 3 hours (FIG. 3B)
Experimental: (§6) Peptide 10 was added in a concentration of 50 μg/ml to a culture with 10^4 Salmonella typhimurium bacteria. For control purposes a culture to which nothing was added was included as blank. The number of CFU was determined at the points in time 0, 1, 2 and 3 hours. The same was done with Yersinia enterocolitica (PYv+). […] Particular peptides are also found to have a killing effect on micro-organisms which are resistant to antimicrobial agents used at present.

Salmonella typhimurium = assay: Killing of Salmonella by peptide 10 (CFU over time); format: cell-based; details: 50 μg/ml, culture with 10^4 Salmonella typhimurium, CFU at 0, 1, 2 and 3 hours (FIG. 3A)
Experimental: as §6

Compound | growth inhibition (Candida albicans) | growth inhibition (Torulopsis glabrata) | growth inhibition [1] | % reduction in viability counts [2] | % reduction in viability counts [3] | % reduction in viability counts [4] | % reduction in viability counts [5] | % reduction in viability counts [6] | % reduction in viability counts [7] | inhibition of lactic acid production (Streptococcus mutans) | inhibition of lactic acid production (Lactobacillus rhamnosus) | inhibition of lactic acid production (Streptococcus salivarius) | inhibition of lactic acid production (Streptococcus sanguis) | IC50 values (50% of the inoculum is killed) (Candida albicans 10231) [µg/mL] | IC50 values (50% of the inoculum is killed) (Candida pseudotropicalis) [µg/mL] | IC50 values (50% of the inoculum is killed) (Cryptococcus neoformans) [µg/mL] | IC50 values (50% of the inoculum is killed) (Candida parapsilosis) [µg/mL] | IC50 values (50% of the inoculum is killed) (Candida glabrata) [µg/mL] | IC50 values (50% of the inoculum is killed) (Candida krusei) [µg/mL] | % reduction in viability counts [12] | other results
C[C@H](NC(=O)[C@H](Cc1cnc[nH]1)NC(=O)[C@H](CO)NC(=O)[C@@H](N)CC(=O)O)C(=O)N[C@@H](CCCCN)C(=O)N[C@@H](CCCNC(=N)N)C(=O)N[C@@H](Cc1cnc[nH]1)C(=O)N[C@@H](Cc1cnc[nH]1)C(=O)NCC(=O)N[C@@H](Cc1ccc(O)cc1)C(=O)N[C@@H](CCCCN)C(=O)N[C@@H](CCCNC(=N)N)C(=O)N[C@@H](CCCCN)C(=O)N[C@@H](Cc1ccccc1)C(=O)N[C@@H](Cc1cnc[nH]1)C(=O)N[C@@H](CCC(=O)O)C(=O)N[C@@H](CCCCN)C(=O)N[C@@H](Cc1cnc[nH]1)C(=O)N[C@@H](Cc1cnc[nH]1)C(=O)N[C@@H](CO)C(=O)N[C@@H](Cc1cnc[nH]1)C(=O)N[C@@H](CCCNC(=N)N)C(=O)NCC(=O)N[C@@H](Cc1ccc(O)cc1)C(=O)O [histatin 5, reference compound] | − | − | − | 38.3% | 49.3% | −49.5% | 69.5% | 26.9% | −11.6% | − (“−” signifies no inhibition of lactic acid formation at >100 μg/ml peptide) | − (“−” signifies no inhibition of lactic acid formation at >100 μg/ml peptide) | − (“−” signifies no inhibition of lactic acid formation at >100 μg/ml peptide) | − (“−” signifies no inhibition of lactic acid formation at >100 μg/ml peptide) |  |  |  |  |  |  |  | 
GHMASKGAIAGKIAKVALKAL-NH2 [positive control peptide] |  |  |  | >99.9* % | >99.9* % | >99.9% | >99.9* % | >99.9* % | >99.9* % |  |  |  |  | 1 | 1 | 0.5 | 1 | 9 | 1 | 98.0% | IC50 values (50% of the inoculum is killed) (Candida albicans 32354): 1 µg/mL; % reduction in viability counts, total Gram-negative average [8]: 83.7%; % reduction in viability counts, total aerobic average [8]: 20.6%; % reduction in viability counts, total anaerobic average [8]: 87.2%; % reduction in viability counts, total Gram-negative average [9]: 84.0%; % reduction in viability counts, total aerobic average [9]: 58.5%; % reduction in viability counts, total anaerobic average [9]: 51.5%; % reduction in viability counts, total Gram-negative average [10]: 97.7%; % reduction in viability counts, total aerobic average [10]: 60.1%; % reduction in viability counts, total anaerobic average [10]: 73.2%; % reduction in viability counts, total Gram-negative average [11]: 45.9%; % reduction in viability counts, total aerobic average [11]: 41.7%; % reduction in viability counts, total anaerobic average [11]: 68.5%
KRLFKELKFSLRKY-OH [peptide 3, KRLFKELKFSLRKY] | + | + | +/− | >99.9* % | 92.9 (3.00)* % | >99.9* % | 99.6 (0.30)* % | >99.9* % | >99.9* % | + (“+” designates full inhibition at 4-20 μg/ml peptide) | + (“+” designates full inhibition at 4-20 μg/ml peptide) | + (“+” designates full inhibition at 4-20 μg/ml peptide) | + (“+” designates full inhibition at 4-20 μg/ml peptide) |  |  |  |  |  |  | −57.8 (77.9) % | 
KRLFKKLLFSLRKY [peptide 10, KRLFKKLLFSLRKY] | + | + | + |  |  |  |  |  |  | + (“+” designates full inhibition at 4-20 μg/ml peptide) | + (“+” designates full inhibition at 4-20 μg/ml peptide) | + (“+” designates full inhibition at 4-20 μg/ml peptide) | + (“+” designates full inhibition at 4-20 μg/ml peptide) |  |  |  |  |  |  |  | number of bacteria (CFU) after adding peptide [13]: below the detection limit; number of bacteria (CFU) after adding peptide (Salmonella typhimurium): below the detection limit
SSSKEENRIIPGGI [negative control, SSSKEENRIIPGGI] |  |  |  |  |  |  |  |  |  |  |  |  |  | >67 | >67 | >67 | >67 | >67 | >67 |  | 

From patent US6638531B1, “Antimicrobial peptides” (priority 1998, dated 2003)
